Values of other authors, collected in patent US20070016968A1, “Treatment of pain through expression of opioid receptors” (priority 2003, published 2007).

What was measured:
μ1-site = conditions: Ling et al 1984, 1985
mice of the CXBX strain = conditions: CXBX strain mice (Rossi et al 1996)
mice = conditions: antinociception tests on mice
cloned DOR-1 receptor = cloned DOR-1 receptor (Mus musculus, UniProt P32300); conditions: mouse recombinant receptor
μ-receptor = conditions: in vivo studies (Ling et al)
[1] = system: MOR-1 knockout mice (exon-1); conditions: disruption in exon-1 (Schuller et al 1999)

Chain of cloned DOR-1 receptor (P32300 whole entry): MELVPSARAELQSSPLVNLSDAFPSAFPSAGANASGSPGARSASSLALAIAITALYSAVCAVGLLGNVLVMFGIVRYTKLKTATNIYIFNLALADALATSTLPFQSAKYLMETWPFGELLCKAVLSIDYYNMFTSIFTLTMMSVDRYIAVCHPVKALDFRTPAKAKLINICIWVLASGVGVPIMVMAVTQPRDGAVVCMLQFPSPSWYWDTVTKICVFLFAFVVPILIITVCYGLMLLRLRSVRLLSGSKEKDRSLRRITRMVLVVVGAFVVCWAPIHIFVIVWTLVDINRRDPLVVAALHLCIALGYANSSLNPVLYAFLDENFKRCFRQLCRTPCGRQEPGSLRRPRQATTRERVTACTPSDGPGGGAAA

C=CCN1CC[C@]23c4c5ccc(O)c4O[C@H]2/C(=N/N=C2\CC[C@@]4(O)[C@H]6Cc7ccc(O)c8c7[C@@]4(CCN6CC=C)[C@H]2O8)CC[C@@]3(O)[C@H]1C5 [naloxonazine]
effect on binding of radioligands to the μ1-site (μ1-site): abolish the binding of radioligands

CN1CC[C@]23c4c5ccc(O)c4O[C@H]2[C@@H](O)C=C[C@H]3[C@H]1C5 [morphine]
antinociceptive activity (mice of the CXBX strain): poor antinociceptive agent | cross tolerance with morphine-6b-glucuronide, heroin or 6-acetyl morphine (mice): does not exhibit cross tolerance

CN1CC[C@]23c4c5ccc(O)c4O[C@H]2[C@@H](O[C@@H]2O[C@H](C(=O)O)[C@@H](O)[C@H](O)[C@H]2O)C=C[C@H]3[C@H]1C5 [morphine-6b-glucuronide]
antinociceptive activity (mice of the CXBX strain): potently antinociceptive

CC(=O)O[C@H]1C=C[C@H]2[C@H]3Cc4ccc(O)c5c4[C@@]2(CCN3C)[C@H]1O5 [6-acetyl morphine]
antinociceptive activity (mice of the CXBX strain): potently antinociceptive

Oc1ccc2c3c1O[C@H]1c4oc5ccccc5c4C[C@@]4(O)[C@@H](C2)N(CC2CC2)CC[C@]314 [naltriben]
displacement of [3H]-diprenorphine binding, compared with BNTX (cloned DOR-1 receptor): more highly displaced

C=CCN1CC[C@]23c4c5ccc(O)c4O[C@H]2/C(=N\N)CC[C@@]3(O)[C@H]1C5 [naloxazone]
effect on binding of radioligands to the μ1-site (μ1-site): abolish the binding of radioligands | block of morphine-induced antinociception (μ-receptor): selectively blocked | block of morphine-induced respiratory depression (μ-receptor): did not block | block of the induction of morphine dependence (μ-receptor): did not block

CC(=O)Oc1ccc2c3c1O[C@H]1[C@@H](OC(C)=O)C=C[C@H]4[C@@H](C2)N(C)CC[C@@]341 [heroin]
antinociceptive activity (mice of the CXBX strain): potently antinociceptive | antinociception [1]: still produce antinociception
